Experiment [1] addresses T1, Fatty-acid amide hydrolase 1 (Rattus norvegicus, UniProt P97612).
T1 sequence (P97612 whole entry): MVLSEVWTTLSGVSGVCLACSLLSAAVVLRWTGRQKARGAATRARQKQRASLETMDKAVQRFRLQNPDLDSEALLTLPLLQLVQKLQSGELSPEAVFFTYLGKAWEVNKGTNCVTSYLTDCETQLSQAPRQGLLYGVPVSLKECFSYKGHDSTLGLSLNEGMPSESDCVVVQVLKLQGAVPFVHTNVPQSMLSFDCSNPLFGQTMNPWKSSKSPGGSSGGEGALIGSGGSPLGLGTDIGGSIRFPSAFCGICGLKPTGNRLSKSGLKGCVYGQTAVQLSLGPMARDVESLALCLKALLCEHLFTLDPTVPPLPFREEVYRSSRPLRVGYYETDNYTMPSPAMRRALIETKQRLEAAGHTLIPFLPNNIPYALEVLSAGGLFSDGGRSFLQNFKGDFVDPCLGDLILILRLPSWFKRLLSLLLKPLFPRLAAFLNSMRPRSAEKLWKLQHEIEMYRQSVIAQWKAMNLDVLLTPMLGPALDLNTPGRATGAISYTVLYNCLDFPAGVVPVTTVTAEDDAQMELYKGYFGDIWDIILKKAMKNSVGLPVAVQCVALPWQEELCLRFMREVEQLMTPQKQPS
In words: Inhibitory constant against Fatty-acid amide hydrolase (FAAH) in rat liver. In kind it is tissue-based.

Experiment [2] has as its target T1, Fatty-acid amide hydrolase 1. In words: Inhibitory concentration against Fatty-acid amide hydrolase (FAAH) in rat liver.

Our source for the Ki and IC50 values is ChEMBL document CHEMBL1132027, “Trifluoromethyl ketone inhibitors of fatty acid amide hydrolase: a probe of structural and conformational features contributing to inhibition” (Bioorg Med Chem Lett, 1999).

Some results are limits rather than exact numbers.

What is called Ki is a measure of affinity in units of concentration, obtained from inhibition or displacement. Read a high Ki as lower affinity. As usually defined, the IC50 is the midpoint of a concentration-inhibition curve. As for `CCc1cc2cc3ccccc3cc2cc1CC(=O)C(F)(F)F`, the Ki in experiment [1] is above 100000 nM. In experiment [2], this compound showed an IC50 above 100000 nM.

The compound `CCCCOC[C@@H]1CC=CC[C@H]1COCCCC(=O)C(F)(F)F` displayed a Ki in experiment [1] of 440 nM. The same compound registered an IC50 in experiment [2] of 2400 nM.

On to `CCCCCCCC/C=C/CCCCCCCC(=O)C(F)(F)F`, for which, in experiment [1], the affinity, expressed as Ki, was 170 nM. The same compound yielded an IC50 in experiment [2] of 780 nM.

In turn, `CCCCCCc1cccc(CCCCCCC(=O)C(F)(F)F)c1` yielded an inhibitory constant (Ki) in experiment [1] of 140 nM. Also, the IC50 in experiment [2] came out at 760 nM.

The compound `O=C(CCCCCc1ccccc1)C(F)(F)F` displayed a Ki in experiment [1] of 170 nM. This compound also showed an IC50 in experiment [2] of 840 nM.

Turning to `CCCCOC[C@@H]1CCCC[C@H]1COCCCC(=O)C(F)(F)F`, the Ki in experiment [1] turned out to be 1200 nM. This compound gave an IC50 in experiment [2] of 9700 nM.

As for `CCCCCCCC/C=C\CCCCCCCC(=O)C(F)(F)F`, the inhibition constant (Ki) in experiment [1] came to 82 nM. The compound further showed an IC50 in experiment [2] of 460 nM.

For `CCCCCCCCc1ccccc1CCCCCCCC(=O)C(F)(F)F`, the Ki in experiment [1] is 320 nM. The compound also showed an IC50 in experiment [2] of 2500 nM.

In the case of `CCCCCCCCCCCCCC(=O)C(F)(F)F`, affinity in experiment [1] was put at a Ki of 490 nM. Moreover, 2300 nM corresponded to half-maximal inhibition in experiment [2] (IC50).

For the compound `CCCCCCCCCCCCCCCCCC(=O)C(F)(F)F`, affinity in experiment [1] was put at a Ki of 240 nM. The same compound showed a concentration for half-maximal inhibition (IC50) in experiment [2] of 1200 nM.

In the case of `CCCCCCCCCC(=O)C(F)(F)F`, in experiment [1], the inhibition constant (Ki) was 130 nM. This compound displayed a 50% inhibitory concentration (IC50) in experiment [2] of 600 nM.

With `CCCCCCCCCCCC(=O)C(F)(F)F`, in experiment [1], the affinity corresponds to a Ki of 140 nM. In addition, the IC50 in experiment [2] turned out to be 130 nM.

On to `CCCCCCC(=O)C(F)(F)F`, for which, in experiment [1], affinity was put at a Ki of 10700 nM. Besides, the IC50 in experiment [2] was determined as 52800 nM.

For the compound `CCCCc1cc2ccccc2cc1CCCC(=O)C(F)(F)F`, the inhibition constant (Ki) in experiment [1] turned out to be 4400 nM. For the same compound, the IC50 in experiment [2] worked out at 30100 nM.

`CCCCCCCc1ccc(CCCCCCC(=O)C(F)(F)F)cc1` came in with a Ki in experiment [1] of 96 nM. Also, in experiment [2], the half-maximal inhibitory concentration (IC50) was determined as 590 nM.

`CCCCOC[C@H]1CC=CC[C@H]1COCCCC(=O)C(F)(F)F` showed an inhibitory constant (Ki) in experiment [1] of 570 nM. The compound also returned a half-inhibitory concentration (IC50) in experiment [2] of 3000 nM.

`O=C(CCCCCCc1ccccc1)C(F)(F)F` came in with an inhibitory constant (Ki) in experiment [1] of 100 nM. The compound further had an IC50 in experiment [2] of 450 nM.

In the case of `O=C(CCCCCCCc1ccccc1)C(F)(F)F`, the affinity in experiment [1] corresponds to a Ki of 25 nM. In experiment [2], this compound had an IC50 of 120 nM.

As for `CCCCCCc1ccccc1CCCCCC(=O)C(F)(F)F`, the inhibition constant Ki in experiment [1] worked out at 2800 nM. In experiment [2], this compound had an IC50 of 13100 nM.

In turn, `CCCCCCCC/C=C\CCCCCCCC(C)=O` displayed a Ki in experiment [1] above 100000 nM. The IC50 in experiment [2] is above 100000 nM.

Consider `CCCCCC(=O)C(F)(F)F`, for which the inhibition constant (Ki) in experiment [1] was 26900 nM. Moreover, in experiment [2], the 50% inhibitory concentration (IC50) is 185000 nM.

As for `CCCCCCCC(=O)C(F)(F)F`, affinity in experiment [1] was put at a Ki of 1200 nM. In addition, the IC50 in experiment [2] came to 6600 nM.

On to `CCCCOC[C@H]1CCCC[C@H]1COCCCC(=O)C(F)(F)F`, for which, in experiment [1], the Ki was found to be 780 nM. The same compound returned an IC50 in experiment [2] of 5700 nM.
